The values below come from PubChem BioAssay (NCI).

Some test systems named below: SF-539 CNS; RPMI-8226 leukemia; SK-MEL-5 melanoma; NCI-H23 lung; A549 NSCLC; NCI-H226 lung; ACHN renal; HT29 colon; HCC-2998 colon; MALME-3M melanoma.
Experiment in all cases: NCI-60 cell line screen, 48 h

Molecules are shown by their SMILES.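 Cultured in 96-well plates, cells were exposed to test compound for 48 hours across five concentrations. Abbreviation: GI50, concentration required for 50% inhibition of growth. The concentration for full growth arrest is given as TGI.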

Turning to `CC1=C(C)C(=O)c2c(c(C(=O)c3ccccc3)c3nc4ccccc4n3c2C)C1=O`, the GI50 with SF-539 CNS was over 100 µM; with RPMI-8226 leukemia, over 100 µM; in the test with SK-MEL-5 melanoma, over 100 µM; in the test with NCI-H23 lung it was 46.5 µM; with A549 NSCLC, over 100 µM; in the test with NCI-H226 lung it was over 100 µM. Moreover, the values for the GI50 in the test on ACHN renal, in the test with HT29 colon and in the test on HCC-2998 colon were 37.2 µM, over 100 µM and over 100 µM, respectively. Moreover, the TGI in the test with SF-539 CNS, in the test on RPMI-8226 leukemia, in the test on SK-MEL-5 melanoma, in the test on NCI-H23 lung, in the test with A549 NSCLC and in the test on NCI-H226 lung was over 100 µM each time. Besides, the TGI in the test with ACHN renal, in the test with HT29 colon and with HCC-2998 colon was over 100 µM in each case.
In the case of `CN(C)c1ccc(-c2cc(=O)c3ccccc3[nH]2)cc1`, the TGI in the test on SF-539 CNS, in the test with RPMI-8226 leukemia, with NCI-H23 lung, in the test with MALME-3M melanoma, in the test with A549 NSCLC and with NCI-H226 lung was over 100 µM throughout. Further, the TGI in the test with ACHN renal, in the test on HT29 colon and with HCC-2998 colon was over 100 µM in each case.
As to `C=C1C(=O)O[C@@H]2C[C@@H]1CC[C@]1(C)O[C@H]1CC[C@@]1(C)O[C@@H]1CC[C@@]2(C)O`, the GI50 in the test with SF-539 CNS was 35.1 µM; in the test with RPMI-8226 leukemia it was 12.4 µM; in the test with SK-MEL-5 melanoma it was 14 µM; in the test with MALME-3M melanoma, 22.3 µM; with A549 NSCLC, over 100 µM; in the test with NCI-H226 lung it was 26.7 µM. Further, the figures for the GI50 in the test with ACHN renal, in the test on HT29 colon and in the test with HCC-2998 colon were 25.1 µM, 24.7 µM and 6.49 µM, respectively. The TGI in the test with SF-539 CNS was over 100 µM; in the test with RPMI-8226 leukemia, 42.7 µM; in the test on SK-MEL-5 melanoma it was 34.8 µM; in the test on MALME-3M melanoma it was 71.2 µM; in the test with A549 NSCLC, over 100 µM; in the test on NCI-H226 lung it was 86.2 µM. The TGI worked out at 75.2 µM with ACHN renal, 87.6 µM in the test with HT29 colon and 24.4 µM in the test on HCC-2998 colon.
Turning to `C=CC1(C)CCC(C(C)C(=O)C(C=C(C)C)OC(C)=O)C12C(=O)Oc1ccccc1C2=O` (configuration not stated), the TGI in the test on SF-539 CNS was over 100 µM; in the test on RPMI-8226 leukemia, 68.2 µM; in the test with NCI-H23 lung, over 100 µM; in the test with MALME-3M melanoma, over 100 µM; in the test with A549 NSCLC, over 100 µM; with NCI-H226 lung, over 100 µM. Also, the TGI in the test with ACHN renal, with HT29 colon and in the test with HCC-2998 colon was over 100 µM throughout.
For the compound `O=C(O)c1ccc(NC(=O)C2C(=O)C(=O)N(c3ccc(C(=O)O)cc3)C2=O)cc1` (configuration not stated), the TGI in the test on SF-539 CNS, in the test with RPMI-8226 leukemia, with NCI-H23 lung, in the test on MALME-3M melanoma, in the test with A549 NSCLC and in the test with NCI-H226 lung was over 100 µM throughout. In addition, the TGI in the test with ACHN renal, with HT29 colon and with HCC-2998 colon was over 100 µM in each case.
Regarding `CC(=O)Nc1ccc(/C=C(\NC(=O)c2ccccc2)c2nc3ccc4c(c3[nH]2)C(=O)c2ccccc2C4=O)cc1`, the TGI in the test with SF-539 CNS was over 100 µM; with RPMI-8226 leukemia it was over 100 µM; in the test on SK-MEL-5 melanoma, over 100 µM; in the test with NCI-H23 lung, over 100 µM; with MALME-3M melanoma it was over 100 µM; in the test on A549 NSCLC it was 96.3 µM. Moreover, the TGI with NCI-H226 lung, in the test with HT29 colon and with HCC-2998 colon was over 100 µM throughout.
For `CSC(=S)c1ccc(C(=S)SC)cc1`, the TGI with SF-539 CNS, in the test on RPMI-8226 leukemia, in the test with SK-MEL-5 melanoma, in the test with NCI-H23 lung, in the test on MALME-3M melanoma and in the test with A549 NSCLC was over 100 µM throughout. Also, the TGI in the test with NCI-H226 lung, in the test with HT29 colon and in the test on HCC-2998 colon was over 100 µM each time.
For `O=C(Nc1ccc(Cl)c(C(F)(F)F)c1)C(=O)C(C(=O)/C=C/c1ccccc1)C1OC(=O)c2ccccc21` (configuration not stated), the TGI with RPMI-8226 leukemia, in the test on NCI-H23 lung, with MALME-3M melanoma, with A549 NSCLC, in the test on NCI-H226 lung and with ACHN renal was over 100 µM throughout. The TGI with HT29 colon and with HCC-2998 colon was over 100 µM in each case.
As to `Cc1cc2c(cc1C)NC(=O)C(NC(=O)/C=C/c1ccccc1)C=N2` (configuration not stated), the TGI in the test on SF-539 CNS is over 100 µM; in the test with RPMI-8226 leukemia, 75.9 µM; in the test with SK-MEL-5 melanoma, over 100 µM; in the test on MALME-3M melanoma, over 100 µM; with A549 NSCLC it was over 100 µM; in the test with NCI-H226 lung it was over 100 µM. Also, the TGI in the test on ACHN renal and in the test on HCC-2998 colon was over 100 µM in each case.
Take `CC[C@@H]1C[C@@H]2CN3CCc4c([nH]c5ccc(OC)cc45)C(COC(=O)c4ccc(OC)c(OC)c4)(C2)C13`: the TGI in the test with SF-539 CNS is 55 µM; with RPMI-8226 leukemia, 86.4 µM; in the test on NCI-H23 lung, 38.8 µM; in the test on A549 NSCLC, over 100 µM; in the test on NCI-H226 lung it was 33.8 µM; in the test on ACHN renal, over 100 µM. Moreover, the TGI with HT29 colon came out at 39.2 µM; with HCC-2998 colon, 55.4 µM.
For the compound `COc1cc(Nc2cnc3cc(C(F)(F)F)ccc3n2)cc(OC)c1OC`, the TGI with SF-539 CNS, with RPMI-8226 leukemia, in the test with NCI-H23 lung, in the test with MALME-3M melanoma, with A549 NSCLC and in the test on NCI-H226 lung was over 100 µM in each case. For the same compound, the TGI in the test with ACHN renal, with HT29 colon and in the test with HCC-2998 colon was over 100 µM throughout.
For the compound `Oc1ccc(C(c2ccccc2)(c2ccccc2)c2ccccc2)cc1`, the GI50 is 17.6 µM with SF-539 CNS; 22 µM in the test with RPMI-8226 leukemia; 15.7 µM in the test with SK-MEL-5 melanoma; 14 µM with NCI-H23 lung; 27.2 µM in the test on MALME-3M melanoma; 12.8 µM in the test on A549 NSCLC. Also, the GI50 with NCI-H226 lung was 19.4 µM; with ACHN renal, 21.9 µM; in the test with HCC-2998 colon, 12.7 µM. Further, the TGI in the test with SF-539 CNS was found to be 31.9 µM; in the test with RPMI-8226 leukemia, 45.5 µM; with SK-MEL-5 melanoma, 32.5 µM; with NCI-H23 lung, 28.9 µM; in the test on MALME-3M melanoma, 68.9 µM; in the test with A549 NSCLC, 29 µM. In addition, the TGI in the test with NCI-H226 lung worked out at 37.6 µM; with ACHN renal it was 41.4 µM; in the test with HCC-2998 colon, 25.7 µM.
